According to ChEMBL document CHEMBL1821551, “From fragment screening to in vivo efficacy: optimization of a series of 2-aminoquinolines as potent inhibitors of beta-site amyloid precursor protein cleaving enzyme 1 (BACE1)” (J Med Chem, 2011):

System: human MDR1 (P-gp)
Experiment: in vitro
Settings: pig, LLC-PK1

Papp [×10⁻⁶ cm/s]	Structure (SMILES)
6.5	Cc1ccccc1-c1ccc2nc(N)c(C[C@@H](C)C(=O)NCc3ccccc3)cc2c1
16	Cc1ccccc1-c1ccc2nc(N)c(CC(C)C(=O)NCc3cccnc3)cc2c1 (racemic)
12	Cc1ccccc1-c1ccc2nc(N)c(CC(C)C(=O)NCc3cncs3)cc2c1 (racemic)
